Like-named read-outs stand apart in the source and are kept apart here.
Tests used:
[1] = test system: NCI-H358 cell (human non-small cell lung cancer cell); assay: Inhibition of the proliferation activity of NCI-H358 cell (CellTiter-Glo); assay type: cell-based; details: 120 h, 5 days
Experimental: Test Example 4: Experiment on the Inhibition of the Proliferation Activity of NCI-H358 Cell (Human Non-Small Cell Lung Cancer Cell)
cell: NCI-H358 (Nanjing CoBioer);
kit: CellTiter-Glo® Luminescent Cell Viability Assay Kit (Promega).
inoculation amount of cell: 1500 cells/well;
incubation conditions for compounds: 37° C., 5% CO2;
incubation duration: 5 days;
detecting temperature: room temperature;
chemiluminescence detection using the BMG PHERAstar FS reader.
Cells were cultured in a medium containing 10% fetal bovine serum under the culture conditions of 37° C. and 5% CO2. An appropriate amount of cells were plated into a 96-well plate and cultured overnight in an incubator to allow the cells to adhere to the wall. The following day, the medium was removed and a complete medium containing a pre-diluted compound was added and incubated at 37° C. for 5 days. On the fifth day, the detection reagent CellTiter-Glo® was added into each well. Chemiluminescence was adopted to detect the relative luminescence units (RLUs) of the wells.
The result of a well containing cell-free medium, treated with CellTiter-Glo®, was obtained as the blank value. Cell viability (%)=(sample RLU−blank RLU)/(vehicle RLU−blank RLU)×100%, and maximum inhibition rate (%)=100%−cell viabilitymax. conc. (%). The half maximal inhibitory concentration (IC50) of the compound was calculated by fitting the curve according to the four-parameter logistic model.

[2] = target: T1, recombinant full-length human PTPN11 (SHP2) (Homo sapiens, UniProt Q06124); assay: Inhibition of in vitro enzyme activity of SHP2 (DiFMUP fluorescence endpoint assay); assay type: biochemical; details: SHP2 0.5 nM, DiFMUP 200 μM, IRS-1 0.5 μM; 60 min incubation
T1 construct: recombinant full-length human PTPN11 (SHP2), active (SignalChem); purchased SignalChem
T1 sequence (Q06124 1-593): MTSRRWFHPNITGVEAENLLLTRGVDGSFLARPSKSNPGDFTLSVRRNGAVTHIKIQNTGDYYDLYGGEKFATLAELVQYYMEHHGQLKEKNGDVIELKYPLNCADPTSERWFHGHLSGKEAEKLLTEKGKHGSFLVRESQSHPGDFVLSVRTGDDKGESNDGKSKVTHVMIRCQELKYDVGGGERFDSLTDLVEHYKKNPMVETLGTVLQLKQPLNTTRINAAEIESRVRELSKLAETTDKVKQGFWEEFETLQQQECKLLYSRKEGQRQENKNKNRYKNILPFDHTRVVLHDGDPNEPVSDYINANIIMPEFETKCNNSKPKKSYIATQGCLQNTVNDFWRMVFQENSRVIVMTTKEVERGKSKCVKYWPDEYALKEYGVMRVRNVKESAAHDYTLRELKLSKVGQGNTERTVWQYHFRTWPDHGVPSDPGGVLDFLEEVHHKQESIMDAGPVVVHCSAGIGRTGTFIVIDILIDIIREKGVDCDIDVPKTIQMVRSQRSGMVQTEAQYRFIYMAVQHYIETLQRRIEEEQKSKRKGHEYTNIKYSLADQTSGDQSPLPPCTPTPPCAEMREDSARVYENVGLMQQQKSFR
Method in brief: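 Full-length human SHP2 (0.5 nM) with 0.5 μM IRS1 bis-phosphopeptide preincubated with compound 60 min at room temperature, pH 7.2 HEPES with 5 mM DTT. DiFMUP (200 μM) reacted 30 min, stopped with bpv, fluorescence ex 340/em 450 nm. IC50 by four-parameter logistic fit.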

CYP2D6 = target: T2, CYP2D6 (Homo sapiens, UniProt P10635); assay: Biochemical assay for CYP enzyme inhibition, P450-Glo CYP2D6 Screening System; assay type: in vitro ADME
T2 construct: purchased Promega
T2 sequence (P10635 whole entry): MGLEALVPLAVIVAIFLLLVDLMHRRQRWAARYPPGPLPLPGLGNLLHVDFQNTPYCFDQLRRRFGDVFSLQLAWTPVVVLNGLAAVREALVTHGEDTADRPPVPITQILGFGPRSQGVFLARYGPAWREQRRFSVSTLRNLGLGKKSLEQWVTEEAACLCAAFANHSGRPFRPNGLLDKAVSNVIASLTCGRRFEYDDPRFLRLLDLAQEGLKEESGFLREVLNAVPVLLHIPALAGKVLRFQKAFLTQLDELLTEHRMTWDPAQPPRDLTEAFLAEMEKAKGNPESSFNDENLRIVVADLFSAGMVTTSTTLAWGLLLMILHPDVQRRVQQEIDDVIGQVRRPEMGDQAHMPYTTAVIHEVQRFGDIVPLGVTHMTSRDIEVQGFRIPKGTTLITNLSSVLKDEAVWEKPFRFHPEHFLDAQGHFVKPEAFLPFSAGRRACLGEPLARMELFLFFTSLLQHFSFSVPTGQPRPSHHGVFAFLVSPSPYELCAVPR
Experimental: Test Example 5: Biochemical Assay for CYP Enzyme (Cytochrome P450) Inhibition
P450-Glo™ CYP2D6 Screening System, (Promega);
BMG PHERAstar FS Luminescent.
The experiments were carried out separately according to the instructions of the kits. The steps were as follows:
3.2. Inhibition Against CYP2D6:
Test group: The test compounds at different concentrations were added into a microplate, and Luciferin-ME EGE (3 μM), K3PO4 (100 mM), and CYP2D6 (5 nM) were added into each well, and pre-incubated at room temperature for 10 min. Thereafter, an NADPH regeneration system was added. The mixture was reacted at 37° C. for 30 min. Finally, an equal volume of detection buffer was added and incubated at room temperature for 20 min, followed by chemiluminescence detection.
Negative control group: The experimental method for the negative control group was the same as that for the test group, except that the test compound was not added.
Blank control group: The experimental method for the blank control group was the same as that for the test group, except that the test compound was not added and that CYP2D6 was replaced with CYP2D6 Membrance (5 nM).
Percentage inhibition=(1−(the chemiluminescent signal value of the test compound group at a certain test concentration−the chemiluminescent signal value of the blank control group)/(the chemiluminescent signal value of the negative control group−the chemiluminescent signal value of the blank control group))×100%.
When the percentage inhibition was between 30% and 80%, a single value or a value range of the half maximal inhibitory concentration (IC50) of the compound against the CYP enzyme was estimated based on the following equation: IC50=X×(1−percentage inhibition)/percentage inhibition, wherein X was the test concentration of the compound.

[3] = estimated from percentage inhibition, read-out: IC50 (μM) CYP2D6

C[C@@H]1OCC2(CCN(c3ncc(Sc4ccnc(N5CC(C)(CO)C5)c4Cl)nc3CO)CC2)[C@@H]1N [Example 27, (3-((3S,4S)-4-amino-3-methyl-2-oxa-8-azaspiro[4.5]decan-8-yl)-6-(3-chloro-2-(3-(hydroxymethyl)-3-methylazetidin-1-yl)pyridin-4-ylthio)pyrazin-2-yl)methanol]
IC50 [1]: 30 nM | IC50 [2]: 4.1 nM | IC50 (CYP2D6): > 10 µM

C[C@@H]1OCC2(CCN(c3ncc(Sc4ccnc(N5CC(CO)(CF)C5)c4Cl)nc3CO)CC2)[C@@H]1N [Example 42, (3-((3S,4S)-4-amino-3-methyl-2-oxa-8-azaspiro[4.5]decan-8-yl)-6-(3-chloro-2-(3-(fluoromethyl)-3-(hydroxymethyl)azetidin-1-yl)pyridin-4-ylthio)pyrazin-2-yl)methanol]
IC50 [1]: 44 nM | IC50 [2]: 10.2 nM | IC50 (CYP2D6; [3]): > 10 µM

C[C@@H]1OCC2(CCN(c3ncc(Sc4ccnc(N5CC(C#N)(CO)C5)c4Cl)nc3CO)CC2)[C@@H]1N [Example 47, 1-(4-(5-((3S,4S)-4-amino-3-methyl-2-oxa-8-azaspiro[4.5]decan-8-yl)-6-(hydroxymethyl)pyrazin-2-ylthio)-3-chloropyridin-2-yl)-3-(hydroxymethyl)azetidine-3-carbonitrile]
IC50 [1]: 23 nM | IC50 [2]: 3.2 nM | IC50 (CYP2D6): > 10 µM

CC(C)(O)C1CN(c2nccc(Sc3cnc(N4CCC5(CC4)Cc4ncccc4[C@H]5N)c(CO)n3)c2Cl)C1 [Example 43, (S)-2-(1-(4-(5-(5-amino-5,7-dihydrospiro[cyclopenta[b]pyridine-6,4′-piperidin]-1′-yl)-6-(hydroxymethyl)pyrazin-2-ylthio)-3-chloropyridin-2-yl)azetidin-3-yl)propan-2-ol]
IC50 [1]: 8 nM | IC50 [2]: 2.6 nM | IC50 (CYP2D6; [3]): > 10 µM

Cc1nc(N2CCC3(CC2)CO[C@@H](C)[C@H]3N)c(CO)nc1Sc1ccnc(N2CC(CS(C)(=O)=O)C2)c1Cl [Example 25, (3-((3S,4S)-4-amino-3-methyl-2-oxa-8-azaspiro[4.5]decan-8-yl)-6-(3-chloro-2-(3-(methylsulfonylmethyl)azetidin-1-yl)pyridin-4-ylthio)-5-methylpyrazin-2-yl)methanol]
IC50 [1]: 150 nM | IC50 [2]: 7 nM | IC50 (CYP2D6): > 10 µM

C[C@@H]1OCC2(CCN(c3ncc(Sc4ccnc(NCC5(O)CC5)c4Cl)nc3CO)CC2)[C@@H]1N [Example 15, 1-((4-(5-((3S,4S)-4-amino-3-methyl-2-oxa-8-azaspiro[4.5]decan-8-yl)-6-(hydroxymethyl)pyrazin-2-ylthio)-3-chloropyridin-2-ylamino)methyl)cyclopropan-1-ol]
IC50 [1]: 40 nM | IC50 [2]: 2.4 nM | IC50 (CYP2D6): > 10 µM

C[C@@H]1OCC2(CCN(c3cnc(Sc4ccnc(N5CC(C(C)(C)O)C5)c4Cl)cn3)CC2)[C@@H]1N [Example 28, 2-(1-(4-(5-((3S,4S)-4-amino-3-methyl-2-oxa-8-azaspiro[4.5]decan-8-yl)pyrazin-2-ylthio)-3-chloropyridin-2-yl)azetidin-3-yl)propan-2-ol]
IC50 [1]: 130 nM | IC50 [2]: 2.45 nM | IC50 (CYP2D6): > 10 µM

C[C@@H]1OCC2(CCN(c3ncc(Sc4ccnc(N5CCCC5CC(N)=O)c4Cl)nc3CO)CC2)[C@@H]1N (stereo partly drawn) [Example 19, 2-(1-(4-(5-((3S,4S)-4-amino-3-methyl-2-oxa-8-azaspiro[4.5]decan-8-yl)-6-(hydroxymethyl)pyrazin-2-ylthio)-3-chloropyridin-2-yl)pyrrolidin-2-yl)acetamide]
IC50 [1]: 220 nM | IC50 [2]: 1.5 nM | IC50 (CYP2D6; [3]): > 10 µM
